{
  "source": "EPA's ToxValDB 9.5 (doi:10.2903/j.efsa.2006.78r)",
  "key": {"Typhlodromus pyri": {"tested_on": "Typhlodromus pyri", "assay": "LR50; higher = less toxic", "conditions": "not reported; mortality"}, "Rattus norvegicus": {"tested_on": "Rattus norvegicus", "conditions": "oral, histopathology: nonneoplastic"}, "Apis mellifera": {"tested_on": "Apis mellifera", "conditions": "acute; duration: 48 hours; oral; unspecified; mortality"}, "Daphnia magna": {"tested_on": "Daphnia magna", "conditions": "chronic/long-term; duration: 21 days"}, "Cucumis sativus": {"tested_on": "Cucumis sativus", "conditions": "chronic/long-term; other"}, "[1]": {"conditions": "acute, oral, unspecified, mortality"}},
  "data": [
    {"smiles": "CCCOC(=O)NCCCN(C)C.Cl", "note": "[Propamocarb hydrochloride]", "values": [
      {"measurement": "LR50", "setting": "Typhlodromus pyri", "result": "> 360", "unit": "g/ha"},
      {"measurement": "LD50", "setting": "Bird; [1]", "result": "> 1840", "unit": "mg/kg-day"},
      {"measurement": "NOEC", "setting": "Bird; reproductive", "result": 105, "unit": "mg/kg-day"},
      {"measurement": "LC50", "setting": "Bird; short-term, oral, feed, mortality", "result": "> 962", "unit": "mg/kg-day"},
      {"measurement": "NOAEL", "setting": "Rattus norvegicus; chronic, duration: 52 weeks, diet, F", "result": 29, "unit": "mg/kg-day"},
      {"measurement": "NOAEL", "setting": "Rattus norvegicus; short-term, duration: 28 days, gavage", "result": 100, "unit": "mg/kg-day"},
      {"measurement": "LD50", "setting": "Apis mellifera", "result": "> 84", "unit": "µg/piece"},
      {"measurement": "LD50", "setting": "[1]", "result": "> 1330", "unit": "mg/kg-day"},
      {"measurement": "LEC", "setting": "chronic/long-term", "result": 104, "unit": "mg/kg-day"},
      {"measurement": "NOEC", "setting": "Daphnia magna", "result": 12.3, "unit": "mg/L"},
      {"measurement": "NOEC", "setting": "Cucumis sativus", "result": 9180, "unit": "g/ha"},
      {"measurement": "LC50", "setting": "Lepomis macrochirus; acute, duration: 96 hours, mortality", "result": "> 92", "unit": "µg/mL"},
      {"measurement": "NOEC", "setting": "Lepomis macrochirus; chronic/long-term, duration: 32 days", "result": "> 6.3", "unit": "mg/L"},
      {"measurement": "LC50", "setting": "Tagia sp.; acute, duration: 14 days, mortality", "result": "> 660", "unit": "mg/kg"},
      {"measurement": "NOEC", "setting": "Tagia sp.; chronic/long-term, duration: 56 days, reproduction", "result": 362, "unit": "mg/kg"}
    ]}
  ]
}
